In patent publication EP4603105A1, “PHARMACEUTICAL COMPOSITION CONTAINING CYCLIC COMPOUND HAVING SELECTIVE KRAS INHIBITORY EFFECT AGAINST HRAS AND NRAS” (CHUGAI SEIYAKU KABUSHIKI KAISHA, priority 2022, dated 2024):

Legend:
[1] = target: GDP-bound NRAS wild-type protein (Homo sapiens, UniProt P01111); assay: Binding to NRAS by surface plasmon resonance (SPR), KD and KD ratio to KRAS; details: ratio of the KD value with respect to GDP-bound NRAS wild-type protein to the KD value with respect to KRAS
Summary of the method: (§1)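 Biotinylated GDP-bound RAS was captured at about 100–300 RU. Running buffer: HBS pH 7.4, 10 mM MgCl2, 10 µM GDP, 1 mM DTT, 0.01% Tween 20, 4% DMSO.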

HRAS wild-type protein = HRAS wild-type protein (Homo sapiens, UniProt P01112); assay: Binding to HRAS by surface plasmon resonance (SPR), KD and KD ratio to KRAS; details: ratio of the KD value with respect to HRAS wild-type protein to the KD value with respect to KRAS
Summary of the method: as §1

[2] = test system: human lung cancer strain NCI-H441; format: cell-based
Summary of the method: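 Step one: dispense the test compound in serial DMSO dilutions. Step three: add the reagent and measure […].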

HRAS wild-type protein, sequence (P01112 whole entry): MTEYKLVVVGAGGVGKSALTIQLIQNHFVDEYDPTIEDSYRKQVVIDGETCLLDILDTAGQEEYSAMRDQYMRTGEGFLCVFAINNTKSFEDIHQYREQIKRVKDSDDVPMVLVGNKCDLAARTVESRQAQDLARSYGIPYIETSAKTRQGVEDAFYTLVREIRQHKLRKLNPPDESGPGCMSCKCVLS
GDP-bound NRAS wild-type protein, sequence (P01111 whole entry): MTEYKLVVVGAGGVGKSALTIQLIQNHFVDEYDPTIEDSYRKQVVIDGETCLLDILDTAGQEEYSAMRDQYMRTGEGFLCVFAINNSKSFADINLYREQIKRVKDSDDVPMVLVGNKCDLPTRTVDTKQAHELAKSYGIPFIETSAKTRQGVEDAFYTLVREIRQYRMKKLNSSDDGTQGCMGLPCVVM

For `CC[C@H](C)[C@@H]1NC(=O)[C@H](C2CC2)N(C)C(=O)C[C@@H](C(=O)N(C)CC)N(C)C(=O)[C@H](C2CCCC2)N(C)C(=O)C2(CC(C)(C)C2)NC(=O)[C@@H]2C[C@H](C)CN2C(=O)[C@H](CCc2ccc(C(F)(F)F)c(OC)c2)NC(=O)CN(C)C(=O)[C@H](Cc2ccc(C(F)(F)F)cc2)N2CC/C=C\C[C@@H](C2=O)N(C)C(=O)CN(C)C1=O` [PP2007], the “NRAS /KRAS” value [1] was “AA (a compound having 20 or more is denoted as AA)”, the “HRAS /KRAS” value (HRAS wild-type protein) was “B (a compound having 3 or more and less than 10 is denoted as B)” and the IC50 [2] was 14.9 nM.
In the case of `CC[C@H](C)[C@@H]1NC(=O)[C@H](C2CCC2)N(C)C(=O)C[C@@H](C(=O)N(C)CC)N(C)C(=O)[C@H](C2CCCC2)N(C)C(=O)C2(CC(C)(C)C2)NC(=O)[C@@H]2C[C@H](C)CN2C(=O)[C@H](CCc2ccc(C(F)(F)F)c(OC)c2)NC(=O)CN(C)C(=O)[C@H](Cc2ccc(C(F)(F)F)cc2)N2CC/C=C\C[C@@H](C2=O)N(C)C(=O)CN(C)C1=O` [PP2009], the “NRAS /KRAS” value [1] is reported as “A (a compound having 10 or more and less than 20 is denoted as A)”, the “HRAS /KRAS” value (HRAS wild-type protein) is reported as “A (a compound having 10 or more and less than 20 is denoted as A)” and the IC50 [2] is reported as 19.7 nM.
With `CCCN(C)C(=O)[C@@H]1CC(=O)N(C)[C@@H](CC(F)F)C(=O)N[C@@H]([C@@H](C)CC)C(=O)N(C)CC(=O)N(C)[C@H]2C/C=C\CCN(C2=O)[C@@H](Cc2ccc(C(F)(F)F)cc2)C(=O)N(C)CC(=O)N[C@@H](CCc2ccc(C(F)(F)F)c(OC)c2)C(=O)N2C[C@H](OCC)C[C@H]2C(=O)NC2(CC(C)(C)C2)C(=O)N(C)[C@@H](C2CCCC2)C(=O)N1C` [PP2010] the “NRAS /KRAS” value [1] was “A (a compound having 10 or more and less than 20 is denoted as A)”, the “HRAS /KRAS” value (HRAS wild-type protein) was “B (a compound having 3 or more and less than 10 is denoted as B)” and the IC50 [2] was 6.6 nM.
`CC[C@H](C)[C@@H]1NC(=O)[C@H](C2CCC2)N(C)C(=O)C[C@@H](C(=O)N(C)C)N(C)C(=O)[C@H](C2CCCC2)N(C)C(=O)C2(CC(C)(C)C2)NC(=O)[C@@H]2C[C@H](C)CN2C(=O)[C@H](CCc2ccc(C(F)(F)F)c(OC)c2)NC(=O)CN(C)C(=O)[C@H](Cc2ccc(C(F)(F)F)cc2)N2CC/C=C\C[C@@H](C2=O)N(C)C(=O)CN(C)C1=O` [PP2011] was tested, and the “NRAS /KRAS” value [1] was “A (a compound having 10 or more and less than 20 is denoted as A)”, the “HRAS /KRAS” value (HRAS wild-type protein) was “A (a compound having 10 or more and less than 20 is denoted as A)” and the IC50 [2] was 10.3 nM.
`CCCN(C)C(=O)[C@@H]1CC(=O)N(C)[C@@H](COCC)C(=O)N[C@@H]([C@@H](C)CC)C(=O)N(C)CC(=O)N(C)[C@H]2C/C=C\CCN(C2=O)[C@@H](Cc2ccc(C(F)(F)F)cc2)C(=O)N(C)CC(=O)N[C@@H](CCc2ccc(C(F)(F)F)c(OC)c2)C(=O)N2C[C@H](OCC)C[C@H]2C(=O)NC2(CC(C)(C)C2)C(=O)N(C)[C@@H](C2CCCC2)C(=O)N1C` [PP2012] was tested, and the “NRAS /KRAS” value [1] was “AA (a compound having 20 or more is denoted as AA)”, the “HRAS /KRAS” value (HRAS wild-type protein) was “A (a compound having 10 or more and less than 20 is denoted as A)” and the IC50 [2] was 11.6 nM.
With `CCCN(C)C(=O)[C@@H]1CC(=O)N(C)[C@@H](CC(F)F)C(=O)N[C@@H]([C@@H](C)CC)C(=O)N(C)CC(=O)N(C)[C@H]2C/C=C\CCN(C2=O)[C@@H](Cc2ccc(C(F)(F)F)cc2)C(=O)N(C)CC(=O)N[C@@H](CCc2ccc(C(F)(F)F)c(OC)c2)C(=O)N2C[C@H](OCC)C[C@H]2C(=O)NC2(CCC2)C(=O)N(C)[C@@H](C2CCCC2)C(=O)N1C` [PP2013] the “NRAS /KRAS” value [1] was “A (a compound having 10 or more and less than 20 is denoted as A)”, the “HRAS /KRAS” value (HRAS wild-type protein) was “B (a compound having 3 or more and less than 10 is denoted as B)” and the IC50 [2] was 7.7 nM.
With `CCOC[C@H]1C(=O)N[C@@H]([C@@H](C)CC)C(=O)N(C)CC(=O)N(C)[C@H]2C/C=C\CCN(C2=O)[C@@H](Cc2ccc(C(F)(F)F)cc2)C(=O)N(C)CC(=O)N[C@@H](CCc2ccc(C(F)(F)F)c(OC)c2)C(=O)N2C[C@H](OCC)C[C@H]2C(=O)NC2(CC(C)(C)C2)C(=O)N(C)[C@@H](C2CCCC2)C(=O)N(C)[C@H](C(=O)N(C)CC)CC(=O)N1C` [PP2014] the “NRAS /KRAS” value [1] was “A (a compound having 10 or more and less than 20 is denoted as A)”, the “HRAS /KRAS” value (HRAS wild-type protein) was “A (a compound having 10 or more and less than 20 is denoted as A)” and the IC50 [2] was 6.9 nM.
For `CCCN(C)C(=O)[C@@H]1CC(=O)N(C)[C@@H](COCC)C(=O)N[C@@H]([C@@H](C)CC)C(=O)N(C)CC(=O)N(C)[C@H]2C/C=C\CCN(C2=O)[C@@H](Cc2ccc(C(F)(F)F)cc2)C(=O)N(C)CC(=O)N[C@@H](CCc2ccc(C(F)(F)F)c(OC)c2)C(=O)N2C[C@H](OCC)C[C@H]2C(=O)NC2(CCC2)C(=O)N(C)[C@@H](C2CCCC2)C(=O)N1C` [PP2015], the “NRAS /KRAS” value [1] was “A (a compound having 10 or more and less than 20 is denoted as A)”, the “HRAS /KRAS” value (HRAS wild-type protein) was “B (a compound having 3 or more and less than 10 is denoted as B)” and the IC50 [2] was 5.6 nM.
With `CCCOC[C@H]1C(=O)N[C@@H]([C@@H](C)CC)C(=O)N(C)CC(=O)N(C)[C@H]2C/C=C\CCN(C2=O)[C@@H](Cc2ccc(C(F)(F)F)cc2)C(=O)N(C)CC(=O)N[C@@H](CCc2ccc(C(F)(F)F)c(OC)c2)C(=O)N2C[C@H](OCC)C[C@H]2C(=O)NC2(CCC2)C(=O)N(C)[C@@H](C2CCCC2)C(=O)N(C)[C@H](C(=O)N(C)CC)CC(=O)N1C` [PP2016] the “NRAS /KRAS” value [1] was “A (a compound having 10 or more and less than 20 is denoted as A)”, the “HRAS /KRAS” value (HRAS wild-type protein) was “A (a compound having 10 or more and less than 20 is denoted as A)” and the IC50 [2] was 8.2 nM.
`CCCN(C)C(=O)[C@@H]1CC(=O)N(C)[C@@H](CCOC)C(=O)N[C@@H]([C@@H](C)CC)C(=O)N(C)CC(=O)N(C)[C@H]2C/C=C\CCN(C2=O)[C@@H](Cc2ccc(C(F)(F)F)cc2)C(=O)N(C)CC(=O)N[C@@H](CCc2ccc(C(F)(F)F)c(OC)c2)C(=O)N2C[C@H](OCC)C[C@H]2C(=O)NC2(CCC2)C(=O)N(C)[C@@H](C2CCCC2)C(=O)N1C` [PP2018] was tested, and the “NRAS /KRAS” value [1] was “A (a compound having 10 or more and less than 20 is denoted as A)”, the “HRAS /KRAS” value (HRAS wild-type protein) was “B (a compound having 3 or more and less than 10 is denoted as B)” and the IC50 [2] was 5.3 nM.
For `CCCN(C)C(=O)[C@@H]1CC(=O)N(C)[C@@H](C(C)C)C(=O)N[C@@H]([C@@H](C)CC)C(=O)N(C)CC(=O)N(C)[C@H]2C/C=C\CCN(C2=O)[C@@H](Cc2ccc(C(F)(F)F)cc2)C(=O)N(C)CC(=O)N[C@@H](CCc2ccc(C(F)(F)F)c(OC)c2)C(=O)N2C[C@H](OCC)C[C@H]2C(=O)NC2(CCC2)C(=O)N(C)[C@@H](C2CCCC2)C(=O)N1C` [PP2020], the “NRAS /KRAS” value [1] was “A (a compound having 10 or more and less than 20 is denoted as A)”, the “HRAS /KRAS” value (HRAS wild-type protein) was “A (a compound having 10 or more and less than 20 is denoted as A)” and the IC50 [2] was 8.3 nM.
With `CCO[C@@H]1C[C@H]2C(=O)NC3(CCC3)C(=O)N(C)[C@@H](C3CCCC3)C(=O)N(C)[C@H](C(=O)N(C)CC)CC(=O)N(C)[C@@H](C3CC3)C(=O)N[C@@H]([C@@H](C)CC)C(=O)N(C)CC(=O)N(C)[C@H]3C/C=C\CCN(C3=O)[C@@H](Cc3ccc(C(F)(F)F)cc3)C(=O)N(C)CC(=O)N[C@@H](CCc3ccc(C(F)(F)F)c(OC)c3)C(=O)N2C1` [PP2021] the “NRAS /KRAS” value [1] was “A (a compound having 10 or more and less than 20 is denoted as A)”, the “HRAS /KRAS” value (HRAS wild-type protein) was “B (a compound having 3 or more and less than 10 is denoted as B)” and the IC50 [2] was 4.9 nM.
In the case of `CCOC[C@H]1C(=O)N[C@@H]([C@@H](C)CC)C(=O)N(C)CC(=O)N(C)[C@H]2C/C=C\CCN(C2=O)[C@@H](Cc2ccc(C(F)(F)F)cc2)C(=O)N(C)CC(=O)N[C@@H](CCc2ccc(C(F)(F)F)c(OC)c2)C(=O)N2C[C@@H](C)C[C@H]2C(=O)NC2(CCC2)C(=O)N(C)[C@@H](C2CCCC2)C(=O)N(C)[C@H](C(=O)N(C)CC)CC(=O)N1C` [PP2026], the “NRAS /KRAS” value [1] is reported as “A (a compound having 10 or more and less than 20 is denoted as A)”, the “HRAS /KRAS” value (HRAS wild-type protein) is reported as “A (a compound having 10 or more and less than 20 is denoted as A)” and the IC50 [2] is reported as 22.6 nM.
For `CCCN(C)C(=O)[C@@H]1CC(=O)N(C)[C@@H](CC(F)F)C(=O)N[C@@H]([C@@H](C)CC)C(=O)N(C)CC(=O)N(C)[C@H]2C/C=C\CCN(C2=O)[C@@H](Cc2ccc(C(F)(F)F)cc2)C(=O)N(C)CC(=O)N[C@@H](CCc2cc(F)c(C(F)(F)F)c(F)c2)C(=O)N2C[C@H](OCC)C[C@H]2C(=O)NC2(CC(C)(C)C2)C(=O)N(C)[C@@H](C2CCCC2)C(=O)N1C` [PP2030], the “NRAS /KRAS” value [1] was “A (a compound having 10 or more and less than 20 is denoted as A)”, the “HRAS /KRAS” value (HRAS wild-type protein) was “A (a compound having 10 or more and less than 20 is denoted as A)” and the IC50 [2] was 4.5 nM.
In the case of `CCCN(C)C(=O)[C@@H]1CC(=O)N(C)[C@@H](COCC)C(=O)N[C@@H]([C@@H](C)CC)C(=O)N(C)CC(=O)N(C)[C@H]2C/C=C\CCN(C2=O)[C@@H](Cc2ccc(C(F)(F)F)cc2)C(=O)N(C)CC(=O)N[C@@H](CCc2cc(F)c(C(F)(F)F)c(F)c2)C(=O)N2C[C@H](OCC)C[C@H]2C(=O)NC2(CC(C)(C)C2)C(=O)N(C)[C@@H](C2CCCC2)C(=O)N1C` [PP2031], the “NRAS /KRAS” value [1] is reported as “B (a compound having 3 or more and less than 10 is denoted as B)”, the “HRAS /KRAS” value (HRAS wild-type protein) is reported as “B (a compound having 3 or more and less than 10 is denoted as B)” and the IC50 [2] is reported as 5.5 nM.
